Measured values: US10196424B2, “Oral peptide inhibitors of interleukin-23 receptor and their use to treat inflammatory bowel diseases” (Protagonist Therapeutics, Inc., priority 2014, dated 2019)

Tested on: DSS-induced colitis in Sprague Dawley rats
Test: Rat colitis model: 9 days of 3% DSS-containing drinking water
Assay type: in vivo
Conditions: 100 mg/kg PO, QD
Description: Rat Colitis Model: 9 Days of 3% DSS-Containing Drinking Water
In this model, colitis was induced in SD rats by 9 days of ad lib exposure to drinking water containing 3% DSS. The disease activity index (DAI) score and ratio of colon weight:colon length were compared between three study groups (n=6 rats/group): vehicle, 3% DSS, and 3% DSS with positive control (sulfasalazine administered at 100 mg/kg PO, QD).
Acute colitis was induced by feeding female Sprague Dawley rats with 3% (wt/vol) DSS dissolved in drinking water. […] A neutralizing anti-IL-23p19 antibody was used as a comparator, and was administered intraperitoneally at 4 mg/kg on the same day and fifth day after starting DSS. […] At necropsy, the entire colon was removed from the cecum to the rectum. The colon was measured for length, flushed with PBS to remove feces, weighed, and opened longitudinally to determine macroscopic score.
Statistical analysis for significance was compared to the vehicle treated group and was determined using Student's T-test (GraphPad Prism). Differences were noted as significant *p≤0.05, **p≤0.01, ***p≤0.001, ****p≤0.0001.

## O=C(O)c1cc(/N=N/c2ccc(S(=O)(=O)Nc3ccccn3)cc2)ccc1O [sulfasalazine]
3% DSS rats with and without treatment
  terminal ratio of colon weight:colon length: significant
3% DSS rats, compared to DSS alone, from Day 5
  disease activity index (DAI) score: attenuated the disease score
